Entries after “also recorded” stand apart in the source; their conditions may differ.
Key:
[1] = tested on: MRSA (S. aureus LUH 14616) on ex vivo human skin; test: Ex vivo skin model; set-up: species or system Staphylococcus aureus; details: 10 μl peptide solution; 1 hour treatment
Text: The donor skin was transported to the LUMC in RPMI 1640 medium (Gibco) supplemented with penicillin/streptomycin (Gibco). Skin samples were washed in PBS and left overnight in RPMI 1640 medium without antibiotics. On the day of the experiment the skin was again washed in PBS, then spread out and punches with a diameter of 8 mm diameter were made with a biopsy punch (Stiefel). The skin samples were dried with a cotton swab. A liquid dam was made with LC Block-Out Resin (Ultradent) on the edge of the skin samples to prevent liquids from dripping off. The liquid dam was solidified by 4 seconds exposure of UV light (Super 1200 led; ECO). The skin samples were placed on grids in a 12-well plate (Costar) filled underneath with medium comprising Ham F12, DMEM and FCS (Gibco). An S. aureus LUH 14616 bacterial suspension was cultured and washed as described before. The skin punches were inoculated with 5 μl of the bacterial suspension (1×10^8 CFU/ml) for one hour at 37° C. and 5% CO2. […] The infected skin was treated for 1 hour at 37° C. and 5% CO2 with 10 μl of the peptide solutions, including a control with 10 μl of PBS alone. Polypropylene tubes were filed with glass beads (1.7 mm diameter) and 1 ml of PBS. The liquid dam was removed from the skin after treatment. […] Results were expressed as the number of viable bacteria (CFU/ml) after treatment.

[2] = tested on: colistin-resistant E. coli (LUH 15117); test: Bactericidal activity of peptides (in vitro killing assay); format: cell-based, Escherichia coli; details: PBS with 50% plasma, 2 hours
Protocol: (§1) Enterococcus faecium (LUH 15122), Staphylococcus aureus (LUH 14616), Klebsiella pneumoniae (LUH 15104), Acinetobacter baumannii (RUH 875), Pseudomonas aeruginosa (LUH 15103), Enterobacter cloacae (LUH 15114) and Escherichia coli (LUH 15117) were used. Prior to experimentation the bacteria were taken from a glycerol stock stored at −80° C. and cultured overnight on sheep blood agar plates at 37° C. On the day of experimentation the bacteria were cultured in tryptic soy broth (TSB; Oxoid) for 2.5 hours at 37° C. and 200 rpm to a mid-logarithmic phase. The bacterial suspension was washed in phosphate buffered saline (PBS; pH 7.4), centrifuged for 10 minutes at 3000 rpm, and resuspended in PBS to the desired concentration, as determined by measuring the absorbance at 600 nm.
(§2) As a control the bacteria were also incubated in PBS with either 50% plasma or 50% urine without peptide. The plate was incubated for 2 hours at 37° C. and 200 rpm. After incubation the number of viable bacteria was determined microbiologically by plating the samples and a 10-times dilution series in PBS on diagnostic sensitivity test agar plates (DST; Sigma). The DST plates were incubated overnight at 37° C. Results were expressed as lethal concentration 99.9, or LC99.9, which represents the lowest concentration of peptide that killed 99.9% of the bacteria within 2 hours of incubation.

[3] = tested on: multidrug resistant strain Acinetobacter baumannii RUH875; test: as above; format: cell-based; details: for LC99.9, bactericidal activity: MDR A. baumannii, PBS with 50% plasma
Protocol: as §1, §2

[4] = tested on: MDR S. aureus (LUH 14616), MRSA; test: as above; format: cell-based, Staphylococcus aureus; details: 50% v/v human plasma
Protocol: as §1, §2

[5] = tested on: E. faecium (LUH 15122); test: as above; format: cell-based, Enterococcus faecium; details: PBS with 50% plasma, 2 hours
Protocol: as §1, §2

[6] = tested on: MDR K. pneumoniae (LUH 15104); test: as above; format: cell-based, Klebsiella pneumoniae; details: PBS with 50% plasma, 2 hours
Protocol: as §1, §2

[7] = tested on: lipopolysaccharide from E. coli J5 (LPS); test: LPS neutralization by peptides (whole blood, IL-12p40 ELISA); format: cell-based, human; details: compared to the LPS control
Protocol: Heparinized blood collected from healthy human volunteers was diluted five times in RPMI 1640. Next, 195 μl of diluted blood were pipetted in to the wells of a 96-well cell culture plate. In another 96-well polypropylene V-bottom plate, 15 μl of peptide solution with final concentrations of 1 nM to 1000 nM were mixed with 15 μl of 500 ng/ml lipopolysaccharide from E. coli J5 (LPS; Sigma) for 30 minutes at 37° C. and 200 rpm. After incubation the mixtures were diluted five times with 120 μl of RPMI. From the diluted mixtures 5 μl were transferred to the wells of the plate containing the 195 μl of blood. The plate was incubated for 20 hours at 37° C. and 5% CO2. The plate was centrifuged for 5 minutes at 1200 rpm. The supernatants were stored as aliquots at −20° C. until analysis of the cytokine level by ELISA. The IL-12p40 sandwich ELISA from Invitrogen was used. ELISAs were performed according to manufacturer's instructions. Results were expressed as the concentration IL-12p40 in pg/ml.

[8] = tested on: 24-hour biofilm of A. baumannii RUH 875; test: Biofilm breakdown assay; format: cell-based, Acinetobacter baumannii; details: 2-hour treatment
Protocol: To a polypropylene 96-well flat-bottom plate (Greiner) 50 μl of a bacterial suspension at a concentration of 1×10^7 CFU/ml in BM2 medium (Overhage et al., 2008) were added. A control comprising BM2 medium alone was included. The plate was sealed off with a seal (Costar) and incubated in a humidified environment for 24 hours at 37° C. Thereafter the wells were washed 2 times with PBS. […] The plate was sealed off and incubated for 2 hours at 37° C. and 200 rpm. For analysis the plate was sonicated (Ultrasoonbad BRANSONIC® m1800H-E; Boom b.v.) for 5 minutes to detach the biofilm bacteria. The number of viable bacteria in the sonicates was determined microbiologically by plating the samples and a 10-times dilution series on DST agar plates and incubating these overnight at 37° C. Results were expressed as the LC99.9.

[9] = tested on: MDR E. cloacae (LUH 15114); test: Bactericidal activity of peptides (in vitro killing assay); format: cell-based, Enterobacter cloacae; details: PBS with 50% plasma, 2 hours
Protocol: as §1, §2

[10] = tested on: E. coli; test: Resistance development assay; format: cell-based, Escherichia coli; details: 20 passages
Protocol: (§3) A bacterial culture was prepared and washed as described before. The bacterial culture was diluted to a concentration of 5×10^6 CFU/ml in modified RPMI 1640 comprising 20 mM HEPES, L-glutamine and without sodium bicarbonate (RPMImod; Sigma-Aldrich). In a polypropylene 96-well plate, a two-fold peptide dilution series was made in RPMImod with concentrations ranging from 0.94 μM to 240 μM. […] A negative control of RPMImod without peptide or an antibiotic was included for both dilution series. A contamination control was included containing only RPMImod. To all the wells, except the contamination control wells, 5 μl of the bacterial suspension were added. The plate was sealed and incubated overnight at 37° C. and 200 rpm. After incubation the MIC was determined as the well with the lowest peptide concentration and no bacterial growth. The well with half the MIC was diluted 2.5-fold with RPMImod and transferred to an Eppendorf tube. […] The results were expressed as the fold increase of the MIC compared to the MIC at the first passage.

[11] = tested on: S. aureus LUH 14616; test: Resistance development assay; format: cell-based, Staphylococcus aureus; details: 20 passages
Protocol: as §3

[12] = tested on: A. Baumannii; test: Killing of A. baumannii in BM2 medium (control); format: cell-based, Acinetobacter baumannii; details: 0.8 μM peptide
Protocol: As a control, the ability of these peptides to kill A. baumannii in BM2 medium was assessed.

[13] = tested on: A. Baumannii; test: Resistance development assay; format: cell-based, Acinetobacter baumannii; details: 20 passages
Protocol: as §3

[14] = tested on: persisters originating from matured, antibiotic-exposed, MRSA biofilms; test: Activity against persisters; format: cell-based, Staphylococcus aureus
[15] = tested on: melanoma; details: Wang et al.; cited from earlier work
[16] = tested on: MDR P. aeruginosa (LUH 15103); test: Bactericidal activity of peptides (in vitro killing assay); format: cell-based, Pseudomonas aeruginosa; details: 2-hour treatment, 50% v/v human plasma, median (range)
Protocol: as §1, §2

[17] = tested on: melanoma cells and other cancer cells; details: Wang et al.; cited from earlier work
[18] = tested on: MRSA; details: Cai et al., 2018; cited from earlier work
[19] = tested on: P. aeruginosa; details: Cai et al., 2018; cited from earlier work
[20] = tested on: drug-sensitive strain Escherichia coli LUH15108; test: Bactericidal activity of peptides (in vitro killing assay), alanine scan; format: cell-based; details: lowest concentration killing 99.9% of an inoculum of about one million bacteria, 50% (v/v) human plasma, within 2 hours
Protocol: The amino acids of the SP27 peptide were substituted at various positions with Alanine. The substituted peptides were tested on A. baumannii and E. coli bacterial strains for having antimicrobial activity. Furthermore, the substituted peptides were tested for their hemolytic activity as an indicator for their toxicity.

Sequence	peptide concentration killing 99.9% of the MRSA on ex vivo human skin [1]	LC99.9, bactericidal activity [2]	LC99.9, bactericidal activity ([3]; 2 hours)	LC99.9, bactericidal activity [5]	LC99.9, bactericidal activity [6]	peptide concentration with complete elimination of the biofilms [8]	LC99.9, bactericidal activity [9]	resistance development: fold increase of the MIC [10]	resistance development: fold increase of the MIC [11]	reduction of viable bacteria [12]	resistance development: fold increase of the MIC [13]	also measured
KRFKKFFKKLKNNVKKRVKKFFRKPRVIGVTIPF [SP4]	102.4 µM	submicromolar concentrations	submicromolar concentrations	low micromolar concentrations	submicromolar concentrations	51.2 µM	submicromolar concentrations	remained constant for all 20 passages	remained constant for all 20 passages; also recorded: limited resistance	2 log	remained constant for all 20 passages	LC99.9 ([4]; Table 2, MDR S. aureus, concentration inducing 3 log reduction of viable bacteria): 3.2 µM; LPS neutralization (IL-12p40 production) ([7]; 100 nM peptide): 74%; LPS neutralization (IL-12p40 production) ([7]; 1000 nM peptide): 96%; activity against persisters [14]: highly effective
KRFKKFFRKLKKSVKKRAKEFFKKPRVIGVSIPF [SP5]												LC99.9 (μM) MRSA in 50% plasma ([4]; MDR S. aureus LUH 14616, 2-hour treatment, lowest concentration killing ≥99.9%, median (range)): 25.6 µM; tumor load in melanoma-bearing mice [15]: reduces the tumor load; LC99.9 (μM) MDR P. aeruginosa in 50% plasma [16]: 0.4 µM; effect on melanoma cells and other cancer cells in vitro [17]: inhibits
KRFQNFFRELEKKFREFFRVYRITIGATIRF [SP16]												bactericidal effect against MRSA [18]: no bactericidal effect; bactericidal effect against P. aeruginosa [19]: no bactericidal effect
KRFKKFFRKVKKGVHRYFKKNKFYIAATIPYYG [SP27]	204.8 µM	submicromolar concentrations	submicromolar concentrations	low micromolar concentrations	submicromolar concentrations	51.2 µM	submicromolar concentrations	remained constant for all 20 passages	remained constant for all 20 passages; also recorded: limited resistance	2 log	remained constant for all 20 passages	LC99.9 (μM) A. baumannii ([3]; Table 5, 50% (v/v) human plasma, 2 hours): 0.8 µM; LC99.9 (μM) A. baumannii ([3]; Table 6, 50% (v/v) human plasma, 2 hours): 0.8 µM; LC99.9 (μM) A. baumannii ([3]; lowest concentration killing 99.9% of an inoculum of about one million bacteria in 50% (v/v) human plasma within 2 hours, A. baumannii RUH875): 0.8 µM; LC99.9 (μM) A. baumannii ([3]; lowest concentration killing 99.9% of an inoculum of about one million bacteria, 50% (v/v) human plasma, within 2 hours, A. baumannii RUH875): 0.8 µM; LC99.9 (μM) A. baumannii ([3]; lowest concentration of the peptide that kills 99.9% of an inoculum of about one million bacteria in the presence of 50% (v/v) human plasma within 2 hours, Acinetobacter baumannii RUH875): 0.8 µM; LC99.9 (μM) E. coli [20]: 1.6 µM
